Among the data in US8883782B2, “Spiro-tetracyclic ring compounds as beta-secretase modulators and methods of use” (Amgen Inc., priority 2010, dated 2014) are IC50 values, retold here.

Read-outs that look alike come from different tables or passages of the source. Where only a bound is given, the exact number is not on record here.

In assay [1] the test system is Aβ40 in conditioned medium of cells stably expressing Amyloid Precursor Protein (APP). The experiment in a line: In vitro BACE cell-based assay (Aβ40 in conditioned medium, sandwich ELISA). To be noted: read-out: HEK cell assay. The method, boiled down: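 Conditioned medium from stably APP-expressing cells treated with compound dose series is assayed for Aβ40 by sandwich ELISA with time-resolved fluorescence detection. IC50 is calculated from percent inhibition of Aβ40 against compound concentration.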
(An ELISA detects its analyte on a solid surface through an enzyme-linked reagent.)

The target of assay [2] is Beta Secretase enzyme (BACE) (Homo sapiens, UniProt P56817). The experiment in a line: In vitro enzymatic BACE FRET (fluorescence resonance energy transfer) assay. Format: biochemical. To be noted: average IC50, enzyme assay; read-out: BACE 1 FRET assay. The method, boiled down: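 Cleavage of a 50 nM fluorophore/quencher peptide FRET substrate by BACE for 1 h in 0.05 M acetate pH 4.2, 10% DMSO, 100 uM genapol. Reaction stopped with Tris to neutral pH before fluorescence reading.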
Sequence of Beta Secretase enzyme (BACE) (P56817 46-501, species assumed): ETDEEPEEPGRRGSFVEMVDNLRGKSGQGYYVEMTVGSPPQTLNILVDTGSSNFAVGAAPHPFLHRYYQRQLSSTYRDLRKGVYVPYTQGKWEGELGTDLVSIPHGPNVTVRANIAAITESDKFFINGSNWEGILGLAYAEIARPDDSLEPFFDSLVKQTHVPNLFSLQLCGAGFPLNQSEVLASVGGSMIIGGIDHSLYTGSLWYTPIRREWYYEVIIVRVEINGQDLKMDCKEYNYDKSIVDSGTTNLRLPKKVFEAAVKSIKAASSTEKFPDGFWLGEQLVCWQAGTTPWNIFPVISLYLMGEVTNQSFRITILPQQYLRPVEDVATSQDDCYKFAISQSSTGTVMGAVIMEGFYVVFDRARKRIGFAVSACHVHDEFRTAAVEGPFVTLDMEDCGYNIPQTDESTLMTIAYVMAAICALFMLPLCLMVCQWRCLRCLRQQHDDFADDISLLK

The mark [3] stands for this setting: Homo sapiens, HEK293, average IC50, HEK cells.
Setting [4] is: Homo sapiens, HEK293, average IC50.

With `Cc1cc(-c2cc3c(c(F)n2)Oc2ccc(-c4cccnc4F)cc2[C@@]32COC(N)=N2)on1` [Example 851, (5S)-1-fluoro-7-(2-fluoro-3-pyridinyl)-3-(3-methyl-5-isoxazolyl)spiro[chromeno[2,3-c]pyridine-5,4′-[1,3]oxazol]-2′-amine], the figures for the IC50 in assay [1] (setting [3]) and in assay [2] were 8 nM and 0.8 nM, respectively.

As for `COc1ncc(-c2ccc3c(c2)[C@@]2(COC(N)=N2)c2cc(N4CCC(F)(F)CC4)ncc2O3)cn1` [Example 419, (5S)-3-(4,4-difluoro-1-piperidinyl)-7-(2-methoxy-5-pyrimidinyl)spiro[chromeno[2,3-c]pyridine-5,4′-[1,3]oxazol]-2′-amine], the IC50 in assay [1] (setting [3]) came to 602 nM; in assay [2], 172 nM.

Take `NC1=N[C@@]2(CS1)c1cc(-c3cnccc3F)ccc1Oc1ncc(-c3cccnc3)cc12` [Example 769, (5S)-7-(4-fluoro-3-pyridinyl)-3-(3-pyridinyl)spiro[chromeno[2,3-b]pyridine-5,4′-[1,3]thiazol]-2′-amine]: the values for the IC50 in assay [1] (setting [4]) and in assay [2] were 44 nM and 2.3 nM, respectively.

On to `CC1(C)CC(c2cnc3c(c2)[C@]2(CSC(N)=N2)c2cc(-c4cccnc4F)ccc2O3)=CCO1` [Example 774, (5S)-3-(2,2-dimethyl-3,6-dihydro-2H-pyran-4-yl)-7-(2-fluoro-3-pyridinyl)spiro[chromeno[2,3-b]pyridine-5,4′-[1,3]thiazol]-2′-amine], for which the IC50 in assay [1] (setting [4]) was found to be 17 nM; in assay [2], 0.6 nM.

Consider `NC1=N[C@]2(CO1)c1cc(-c3cccnc3F)c(F)cc1Oc1c(F)cc(C3CCOCC3)cc12` [Example 871, (4R)-3′,5′-difluoro-2′-(2-fluoro-3-pyridinyl)-7′-(tetrahydro-2H-pyran-4-yl)spiro[1,3-oxazole-4,9′-xanthen]-2-amine], for which the IC50 in assay [1] (setting [3]) amounted to 6470 nM; in assay [2] it was 179 nM.

`NC1=NC2(CO1)c1cc(-c3cccnc3F)ccc1Oc1nc(F)c(-c3cccnc3F)cc12` (stereo not shown) [Example 147, 2-fluoro-3,7-bis(2-fluoro-3-pyridinyl)spiro[chromeno[2,3-b]pyridine-5,4′-[1,3]oxazol]-2′-amine]: the IC50 in assay [1] (setting [4]) was 124 nM; in assay [2], 22.3 nM.

For the molecule `C[C@@](C#Cc1cnc2c(c1)[C@]1(COC(N)=N1)c1cc(-c3cccnc3F)ccc1O2)(CO)CCl` [Example 1015, (2R)-4-((5S)-2′-amino-7-(2-fluoro-3-pyridinyl)spiro[chromeno[2,3-b]pyridine-5,4′-[1,3]oxazol]-3-yl)-2-(chloromethyl)-2-methyl-3-butyn-1-ol], the IC50 in assay [1] (setting [4]) came to 9 nM; in assay [2], 1 nM.

With `NC1=N[C@]2(CO1)c1cc(-c3cccnc3F)ccc1Oc1c2cc(C#Cc2cccnc2)nc1F` [Example 747, (5R)-1-fluoro-7-(2-fluoro-3-pyridinyl)-3-(3-pyridinylethynyl)spiro[chromeno[2,3-c]pyridine-5,4′-[1,3]oxazol]-2′-amine], the IC50 in assay [1] (setting [4]) is at least 10000 nM; in assay [2] it was 1120 nM.

Take `NC1=N[C@@]2(CS1)c1cc(-c3cncc(F)c3)ccc1Oc1ncc(-c3ncccn3)cc12` [Example 771, (5S)-7-(5-fluoro-3-pyridinyl)-3-(2-pyrimidinyl)spiro[chromeno[2,3-b]pyridine-5,4′-[1,3]thiazol]-2′-amine]: the results for the IC50 in assay [1] (setting [4]) and in assay [2] were 96 nM and 4.6 nM, respectively.

On to `NC1=N[C@@]2(CO1)c1cc(-c3cc(Cl)ccc3F)ccc1Oc1ncc(C3=CCCOC3)cc12` [Example 172, (5S)-7-(5-chloro-2-fluorophenyl)-3-(5,6-dihydro-2H-pyran-3-yl)spiro[chromeno[2,3-b]pyridine-5,4′-[1,3]oxazol]-2′-amine], for which the IC50 in assay [1] (setting [4]) came out at 5.3 nM; in assay [2], 0.4 nM.

Consider `CC(C)(C)/C=C/c1ccc2c(c1)[C@]1(COC(N)=N1)c1cc(Cl)ncc1O2` [Example 383, (5R)-3-chloro-7-((1E)-3,3-dimethyl-1-buten-1-yl)spiro[chromeno[2,3-c]pyridine-5,4′-[1,3]oxazol]-2′-amine], for which the IC50 in assay [1] (setting [3]) is 2560 nM; in assay [2] it was 622 nM.

As to `COc1ncccc1-c1ccc2c(c1)[C@@]1(COC(N)=N1)c1cc(-c3ccnc(F)c3)ncc1O2` [Example 239, (5S)-3-(2-fluoro-4-pyridinyl)-7-(2-methoxy-3-pyridinyl)spiro[chromeno[2,3-c]pyridine-5,4′-[1,3]oxazol]-2′-amine], the IC50 in assay [1] (setting [4]) is 389 nM; in assay [2], 33.5 nM.

Take `NC1=N[C@@]2(CO1)c1cc(-c3cccnc3F)ccc1Oc1nc(F)c(C3=CCCOC3)cc12` [Example 903, (5S)-3-(5,6-dihydro-2H-pyran-3-yl)-2-fluoro-7-(2-fluoro-3-pyridinyl)spiro[chromeno[2,3-b]pyridine-5,4′-[1,3]oxazol]-2′-amine]: the IC50 in assay [1] (setting [3]) came to 49 nM; in assay [2] it was 1.4 nM.

With `NC1=N[C@@]2(CO1)c1cc(-c3cccnc3F)ccc1Oc1ncc(-c3cccnc3F)cc12` [Example 732, (5S)-3,7-bis(2-fluoro-3-pyridinyl)spiro[chromeno[2,3-b]pyridine-5,4′-[1,3]oxazol]-2′-amine], the IC50 in assay [1] (setting [4]) was determined as 3 nM; in assay [2], 2 nM.

For “(4S)-2′-(((1R)-2,2-difluorocyclopropyl)methoxy)-4′-fluoro-7′-(2-fluoro-3-pyridinyl)spiro[1,3-thiazole-4,9′-xanthen]-2-amine, (4S)-2′-(((1S)-2,2-difluorocyclopropyl)methoxy)-4′-fluoro-7′-(2-fluoro-3-pyridinyl)spiro[1,3-thiazole-4,9′-xanthen]-2-amine [Example 1080]”, the IC50 turned out to be 47 nM in assay [1] (average IC50) and 0.5 nM in assay [2].

Take `COc1cc(F)c2c(c1)[C@]1(COC(N)=N1)c1cc(-c3cncc(C(C)(F)F)c3)ccc1O2` [Example 1070, (4S)-7′-(5-(1,1-difluoroethyl)-3-pyridinyl)-4′-fluoro-2′-methoxyspiro[1,3-oxazole-4,9′-xanthen]-2-amine]: the IC50 in assay [1] (setting [4]) came out at 367 nM; in assay [2], 345 nM.

As for `COc1ccc2c(c1)[C@@]1(COC(N)=N1)c1cc(C3(F)CCOCC3)cc(F)c1O2` [Example 939, (4S)-4′-fluoro-2′-(4-fluorotetrahydro-2H-pyran-4-yl)-7′-methoxyspiro[1,3-oxazole-4,9′-xanthen]-2-amine], the IC50 was 3560 nM in assay [1] (setting [3]) and 1710 nM in assay [2].

For `Cc1cccc(Oc2ccc3c(c2)[C@@]2(COC(N)=N2)c2cc(N4CCOCC4)cc(F)c2O3)n1` [Example 1057, (4S)-4′-fluoro-7′-((6-methyl-2-pyridinyl)oxy)-2′-(4-morpholinyl)spiro[1,3-oxazole-4,9′-xanthen]-2-amine], the IC50 was 687 nM in assay [1] (setting [4]) and 73.2 nM in assay [2].

On to `C[C@@H]1CN(c2cc(F)c3c(c2)[C@]2(COC(N)=N2)c2cc(-c4cccnc4F)ccc2O3)C[C@H](C)O1` [Example 303, (4S)-2′-((2R,6S)-2,6-dimethyl-4-morpholinyl)-4′-fluoro-7′-(2-fluoro-3-pyridinyl)spiro[1,3-oxazole-4,9′-xanthen]-2-amine], for which the IC50 in assay [1] (setting [4]) was found to be 6.7 nM; in assay [2] it was 2 nM.

As to “(5R)-7-(2,4-difluoro-3-pyridinyl)-3-(2-fluoro-4-pyridinyl)spiro[chromeno[2,3-c]pyridine-5,4′-[1,3]thiazol]-2′-amine, (5S)-7-(2,4-difluoro-3-pyridinyl)-3-(2-fluoro-4-pyridinyl)spiro[chromeno[2,3-c]pyridine-5,4′-[1,3]thiazol]-2′-amine [Example 1019]”, the figures for the IC50 in assay [1] (average IC50) and in assay [2] were 33 nM and 0.7 nM, respectively.

Consider `Cn1cc(-c2cnc3c(c2)[C@]2(CSC(N)=N2)c2cc(-c4cccnc4F)ccc2O3)cn1` [Example 584, (5S)-7-(2-fluoro-3-pyridinyl)-3-(1-methyl-1H-pyrazol-4-yl)spiro[chromeno[2,3-b]pyridine-5,4′-[1,3]thiazol]-2′-amine], for which the IC50 amounted to 15.9 nM in assay [1] (setting [3]) and 2 nM in assay [2].

`Cc1cc(-c2cc3c(c(F)n2)Oc2ccc(-c4cccnc4F)cc2[C@]32CSC(N)=N2)ccn1` (racemic) [Example 1032, (5R)-1-fluoro-7-(2-fluoro-3-pyridinyl)-3-(2-methyl-4-pyridinyl)spiro[chromeno[2,3-c]pyridine-5,4′-[1,3]thiazol]-2′-amine, (5S)-1-fluoro-7-(2-fluoro-3-pyridinyl)-3-(2-methyl-4-pyridinyl)spiro[chromeno[2,3-c]pyridine-5,4′-[1,3]thiazol]-2′-amine]: the figures for the IC50 in assay [1] and in assay [2] were 3 nM and 0.4 nM, respectively.

For `NC1=NC2(CS1)c1cc(-c3cccnc3F)ccc1Oc1c2cc(C2=CCOCC2)nc1F` (stereo not shown) [Example 638, 3-(3,6-dihydro-2H-pyran-4-yl)-1-fluoro-7-(2-fluoro-3-pyridinyl)spiro[chromeno[2,3-c]pyridine-5,4′-[1,3]thiazol]-2′-amine], the IC50 in assay [1] (setting [3]) was found to be 4 nM; in assay [2] it was 0.6 nM.

In the case of `CC1(C)CC(c2cc3c(cn2)Oc2ccc(-c4cncc(F)c4)cc2[C@@]32COC(N)=N2)=CCO1` [Example 371, (5S)-3-(2,2-dimethyl-3,6-dihydro-2H-pyran-4-yl)-7-(5-fluoro-3-pyridinyl)spiro[chromeno[2,3-c]pyridine-5,4′-[1,3]oxazol]-2′-amine], the IC50 in assay [1] (setting [4]) stood at 10.7 nM; in assay [2] it was 2 nM.

As for `NC1=N[C@]2(CO1)c1cc(C3=CCOCC3)ccc1Oc1ccc(-c3cncc(F)c3)cc12` [Example 193, (4R)-2′-(3,6-dihydro-2H-pyran-4-yl)-7′-(5-fluoro-3-pyridinyl)spiro[1,3-oxazole-4,9′-xanthen]-2-amine], the IC50 in assay [1] (setting [4]) is 18 nM; in assay [2], 7.5 nM.

As for `NC1=N[C@@]2(CO1)c1cc(O)ccc1Oc1ncc(Br)cc12` [Example 689, (5S)-2′-amino-3-bromospiro[chromeno[2,3-b]pyridine-5,4′-[1,3]oxazol]-7-ol], the IC50 turned out to be 10000 nM in assay [1] (setting [3]) and 4070 nM in assay [2].
